Like-named read-outs stand apart in the source and are kept apart here.
Assays:
FIH1 [1] = molecular target: T1, FIH1 (Homo sapiens, UniProt Q9NWT6); assay: FIH1 IC50 determination (LC/MS/MS, selectivity screening)
PHD3 [2] = molecular target: T2, PHD3 (Homo sapiens, UniProt Q9H6Z9); assay: PHD3 IC50 determination (LC/MS/MS, selectivity screening); assay type: biochemical
PHD1 [3] = molecular target: T3, PHD1 (Homo sapiens, UniProt Q96KS0); assay: PHD1 IC50 determination (LC/MS/MS, selectivity screening); assay type: biochemical
PHD2 = PHD2 (Homo sapiens, UniProt Q9GZT9); assay: Mechanism of inhibition and Ki determination at increasing 2-OG concentrations; settings: for mechanism of inhibition of PHD2: IC50 increases linearly with increasing 2-OG concentration
FIH1 [4] = molecular target: T1, FIH1; settings: read-out: Km for 2-OG, FIH1; 1 μM peptide, 1 mM ascorbic acid, 15 nM enzyme
PHD3 [5] = molecular target: T2, PHD3; settings: read-out: Km for 2-OG, PHD3; 1 μM peptide, 1 mM ascorbic acid, 40 nM enzyme
PHD1 [6] = molecular target: T3, PHD1; settings: read-out: Km for 2-OG, PHD1; 1 μM peptide, 1 mM ascorbic acid, 50 nM enzyme

T1 sequence (Q9NWT6 whole entry): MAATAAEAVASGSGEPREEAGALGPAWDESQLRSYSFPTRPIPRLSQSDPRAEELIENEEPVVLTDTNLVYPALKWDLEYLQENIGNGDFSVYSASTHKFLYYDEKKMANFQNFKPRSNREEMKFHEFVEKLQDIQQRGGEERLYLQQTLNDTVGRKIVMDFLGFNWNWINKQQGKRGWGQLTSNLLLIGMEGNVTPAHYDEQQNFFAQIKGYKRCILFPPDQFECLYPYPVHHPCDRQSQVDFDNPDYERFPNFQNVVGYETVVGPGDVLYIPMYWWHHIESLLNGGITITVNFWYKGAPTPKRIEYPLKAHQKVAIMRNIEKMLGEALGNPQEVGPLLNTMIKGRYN
PHD2, sequence (Q9GZT9 180-417): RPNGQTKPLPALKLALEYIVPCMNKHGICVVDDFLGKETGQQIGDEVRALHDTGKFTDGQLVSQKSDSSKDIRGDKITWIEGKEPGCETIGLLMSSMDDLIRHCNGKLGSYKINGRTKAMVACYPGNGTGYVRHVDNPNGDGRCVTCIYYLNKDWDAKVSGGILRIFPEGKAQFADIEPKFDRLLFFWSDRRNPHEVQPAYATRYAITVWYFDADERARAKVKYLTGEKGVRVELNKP
T2 sequence (Q9H6Z9 whole entry): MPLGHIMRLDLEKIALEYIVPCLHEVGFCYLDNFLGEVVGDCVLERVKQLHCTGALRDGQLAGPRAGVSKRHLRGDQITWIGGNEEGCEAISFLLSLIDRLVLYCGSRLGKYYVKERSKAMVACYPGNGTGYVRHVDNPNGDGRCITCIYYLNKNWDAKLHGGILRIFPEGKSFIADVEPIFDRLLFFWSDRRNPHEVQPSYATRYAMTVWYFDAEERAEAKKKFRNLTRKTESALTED
T3 sequence (Q96KS0 163-403): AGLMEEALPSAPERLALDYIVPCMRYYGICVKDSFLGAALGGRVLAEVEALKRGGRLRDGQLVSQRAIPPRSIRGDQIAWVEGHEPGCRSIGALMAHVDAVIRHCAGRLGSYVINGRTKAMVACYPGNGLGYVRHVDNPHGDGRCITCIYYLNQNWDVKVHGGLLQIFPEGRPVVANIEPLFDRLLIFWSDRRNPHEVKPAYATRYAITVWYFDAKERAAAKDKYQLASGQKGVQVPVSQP

Structure (SMILES) | IC50 (FIH1 [1]) [µM] | IC50 (PHD3 [2]) [µM] | IC50 (PHD1 [3]) [µM] | other results
Cc1cccnc1CN1CCC2(CC1)C(=O)N(c1ccc(-c3ccccc3)cc1)c1ccccc12 [Compound 9] | > 10 | 2.04 | 1.62 | 
O=C(O)CNC(=O)c1c(O)n(C2CCCCC2)c(=O)n(C2CCCCC2)c1=O [Compound 3] |  | 0.008 | 0.015 | 
O=C(NC(c1ccccc1)c1ccccc1)c1cnc(-c2cccnn2)nc1O [Compound 8] | 9.77 | 0.025 | 0.02 | 
N#Cc1cn(-c2c[nH]n(-c3cc(N4CC(F)(F)C4)ncn3)c2=O)nn1 [Compound 7] |  | 0.012 | 0.02 | Ki (PHD2): 0.087 µM; mechanism of inhibition of PHD2 (PHD2): compete with 2-OG substrate for binding at the enzyme active site
Cc1nc(C(=O)NCC(=O)O)c(O)c2ccc(Oc3ccccc3)cc12 [Compound 4] | > 10 | 0.005 | 0.002 | mechanism of inhibition of PHD2 (PHD2): compete with 2-OG substrate for binding at the enzyme active site
CC(C)c1nn(Cc2ccc(-c3ccc(F)cc3)cc2F)c(=O)c(C(=O)NCC(=O)O)c1O [Compound 1] |  | 0.013 | 0.003 | 
O=C(O)CNC(=O)c1nc(Cl)c2ccccc2c1O [Compound 5] | > 10 | 0.021 | 0.016 | 
O=C(O)CCC(=O)C(=O)O [Compound 2-OG, 2-oxoglutarate] |  |  |  | Km (FIH1 [4]): 0.56 µM; Km (PHD3 [5]): 0.66 µM; Km (PHD1 [6]): 0.31 µM
O=C(O)c1cnn(-c2nc3cc(C(F)(F)F)c(Cl)cc3[nH]2)c1 [Compound 2] | 5.49 | 0.025 | 0.011 | 
O=C(O)CNC(=O)C(=O)O [Compound 6] | 0.191 | 0.186 |  | IC50 (PHD1 [3]; read-out: PHD1 IC50 (μM)—60 min incubation, 60 min preincubation, 25 nM PHD1, 2 μM 2-OG): 0.851 µM
